# Source: US12655106B2 (Eikonizo Therapeutics, Inc., priority 2021, dated 2026)
# Key:
# Full length Human HDAC8 = molecular target: T1, Full length Human HDAC8 (Homo sapiens, UniProt Q9BY41); test: Caliper endpoint assay for HDAC enzymatic activity (HDAC8); format: biochemical; conditions: in vitro enzymatic, 30 min pre-incubation, 1 μM substrate peptide
# T1 construct: Full length Human HDAC8; HIS (N); host or cells: baculovirus expression system
# T1 sequence (Q9BY41 1-377): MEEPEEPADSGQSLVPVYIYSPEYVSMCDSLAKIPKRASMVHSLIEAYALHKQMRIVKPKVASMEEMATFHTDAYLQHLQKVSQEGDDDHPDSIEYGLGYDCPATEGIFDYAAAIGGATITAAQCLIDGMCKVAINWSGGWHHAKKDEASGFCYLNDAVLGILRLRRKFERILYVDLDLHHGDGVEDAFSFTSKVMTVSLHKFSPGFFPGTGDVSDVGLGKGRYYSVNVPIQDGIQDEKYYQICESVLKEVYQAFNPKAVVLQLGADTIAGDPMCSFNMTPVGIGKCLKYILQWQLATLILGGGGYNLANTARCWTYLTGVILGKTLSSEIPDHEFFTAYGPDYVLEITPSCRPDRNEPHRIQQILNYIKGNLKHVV
# Full length Human HDAC6 = molecular target: T2, Full length Human HDAC6 (Homo sapiens, UniProt Q9UBN7); test: Caliper endpoint assay for HDAC enzymatic activity (HDAC6); format: biochemical; conditions: for IC50: in vitro enzymatic, Caliper endpoint assay, 30 min pre-incubation, 1 μM substrate peptide; for Selectivity (6 v 8): ratio of HDAC8 IC50/HDAC6 IC50
# T2 construct: Full length Human HDAC6; FLAG (C); host or cells: baculovirus expression system
# T2 sequence (Q9UBN7 1-1215): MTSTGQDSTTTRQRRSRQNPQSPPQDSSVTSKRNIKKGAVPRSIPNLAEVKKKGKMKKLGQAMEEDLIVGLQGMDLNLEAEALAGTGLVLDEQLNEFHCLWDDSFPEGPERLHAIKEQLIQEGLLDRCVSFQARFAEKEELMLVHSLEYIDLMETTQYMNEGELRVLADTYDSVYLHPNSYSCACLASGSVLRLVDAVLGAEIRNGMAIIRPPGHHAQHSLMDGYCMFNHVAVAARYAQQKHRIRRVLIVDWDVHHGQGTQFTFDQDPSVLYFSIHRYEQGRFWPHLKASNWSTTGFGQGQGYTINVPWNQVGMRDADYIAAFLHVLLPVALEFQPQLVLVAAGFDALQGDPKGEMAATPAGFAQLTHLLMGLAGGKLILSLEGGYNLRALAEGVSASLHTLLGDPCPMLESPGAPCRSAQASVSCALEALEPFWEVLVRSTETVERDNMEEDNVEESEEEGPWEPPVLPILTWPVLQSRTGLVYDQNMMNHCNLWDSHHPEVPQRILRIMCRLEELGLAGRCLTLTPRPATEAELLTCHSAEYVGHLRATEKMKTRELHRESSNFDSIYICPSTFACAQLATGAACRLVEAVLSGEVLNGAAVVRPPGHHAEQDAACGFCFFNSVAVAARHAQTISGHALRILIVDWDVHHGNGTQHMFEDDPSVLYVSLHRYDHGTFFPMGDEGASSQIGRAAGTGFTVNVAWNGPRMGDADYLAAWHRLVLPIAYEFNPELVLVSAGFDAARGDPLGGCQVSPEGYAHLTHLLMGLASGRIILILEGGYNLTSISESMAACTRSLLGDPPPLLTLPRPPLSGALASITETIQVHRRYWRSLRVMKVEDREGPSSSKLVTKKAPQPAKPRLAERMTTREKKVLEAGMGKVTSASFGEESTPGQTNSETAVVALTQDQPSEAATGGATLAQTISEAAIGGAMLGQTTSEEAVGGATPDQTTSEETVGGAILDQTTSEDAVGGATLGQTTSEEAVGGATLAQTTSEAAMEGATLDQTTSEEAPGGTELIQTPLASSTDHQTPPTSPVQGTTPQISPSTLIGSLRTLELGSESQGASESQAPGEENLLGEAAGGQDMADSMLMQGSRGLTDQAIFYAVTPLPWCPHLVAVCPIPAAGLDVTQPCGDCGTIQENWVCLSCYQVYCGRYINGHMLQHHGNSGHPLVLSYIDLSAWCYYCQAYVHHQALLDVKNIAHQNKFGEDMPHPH
IC50 (Full length Human HDAC8) [nM],IC50 (Full length Human HDAC6) [nM],Selectivity (6 v 8) (Full length Human HDAC6),SMILES
1000 to 10000,10000 to 100000,I (I: 0.1-1),"O=C(NO)c1cc(F)cc(CN2CCC3(CCCCC3)CC2)c1 [Compound 276, 3-((3-azaspiro[5.5]undecan-3-yl)methyl)-5-fluoro-N-hydroxybenzamide]"
1000 to 10000,1 to 100,IV (IV: >100-1000),"O=C(NO)c1cc(F)c2c(c1)CCN(C1CC3(CNC3)C1)C2 [Compound 289, 2-(2-azaspiro[3.3]heptan-6-yl)-8-fluoro-3,4-dihydro-1H-isoquinoline-6-carbohydroxamic acid]"
1000 to 10000,1 to 100,IV (IV: >100-1000),"CN1CC2(CC(N3CCc4cc(C(=O)NO)cc(F)c4C3)C2)C1 [Compound 290, 8-fluoro-N-hydroxy-2-(2-methyl-2-azaspiro[3.3]heptan-6-yl)-1,2,3,4-tetrahydroisoquinoline-6-carboxamide]"
1000 to 10000,1 to 100,IV (IV: >100-1000),"O=C(NO)c1cc(F)c2c(c1)CCN(C1CC3(C1)CN(C1CC1)C3)C2 [Compound 291, 2-(2-cyclopropyl-2-azaspiro[3.3]heptan-6-yl)-8-fluoro-N-hydroxy-1,2,3,4-tetrahydroisoquinoline-6-carboxamide]"
10000 to 100000,1 to 100,IV (IV: >100-1000),"CC(=O)N1CC2(CC(N3CCc4cc(C(=O)NO)cc(F)c4C3)C2)C1 [Compound 292, 2-(2-acetyl-2-azaspiro[3.3]heptan-6-yl)-8-fluoro-N-hydroxy-1,2,3,4-tetrahydroisoquinoline-6-carboxamide]"
10000 to 100000,1 to 100,IV (IV: >100-1000),"O=C(NO)c1cc(F)c2c(c1)CCN(C1CCC13CCC3)C2 (stereo not drawn) [Compound 299, 8-fluoro-2-spiro[3.3]heptan-3-yl-3,4-dihydro-1H-isoquinoline-6-carbohydroxamic acid]"
1000 to 10000,1 to 100,IV (IV: >100-1000),"O=C(NO)c1cc(F)c2c(c1)CCN(C1CCC13COC3)C2 (stereo not drawn) [Compound 300, 8-fluoro-2-(2-oxaspiro[3.3]heptan-7-yl)-3,4-dihydro-1H-isoquinoline-6-carbohydroxamic acid]"
1000 to 10000,1 to 100,IV (IV: >100-1000),"O=C(NO)c1cc(F)c2c(c1)CCN(C1CCC13CNC3)C2 (stereo not drawn) [Compound 301, 2-(2-azaspiro[3.3]heptan-7-yl)-8-fluoro-3,4-dihydro-1H-isoquinoline-6-carbohydroxamic acid]"
1000 to 10000,1 to 100,IV (IV: >100-1000),"CN1CC2(CCC2N2CCc3cc(C(=O)NO)cc(F)c3C2)C1 (stereo not drawn) [Compound 302, 8-fluoro-2-(2-methyl-2-azaspiro[3.3]heptan-7-yl)-3,4-dihydro-1H-isoquinoline-6-carbohydroxamic acid]"
1000 to 10000,1 to 100,III (III: >10-100),"O=C(NO)c1cc(F)c2c(c1)CCN(C1CCC13CN(C1CC1)C3)C2 (stereo not drawn) [Compound 303, 2-(2-cyclopropyl-2-azaspiro[3.3]heptan-7-yl)-8-fluoro-3,4-dihydro-1H-isoquinoline-6-carbohydroxamic acid]"
1000 to 10000,1 to 100,IV (IV: >100-1000),"CC(=O)N1CC2(CCC2N2CCc3cc(C(=O)NO)cc(F)c3C2)C1 (stereo not drawn) [Compound 304, 2-(2-acetyl-2-azaspiro[3.3]heptan-7-yl)-8-fluoro-3,4-dihydro-1H-isoquinoline-6-carbohydroxamic acid]"
1000 to 10000,1 to 100,IV (IV: >100-1000),"O=C(NO)c1cc(F)c2c(c1)CCN(C1CCC13CCCC3)C2 (stereo not drawn) [Compound 314, 8-fluoro-2-spiro[3.4]octan-3-yl-3,4-dihydro-1H-isoquinoline-6-carbohydroxamic acid]"
